This is an account of results in patent publication US20230265116A1, “DEGRADATION OF (EGFR) BY CONJUGATION OF EGFR INHIBITORS WITH E3 LIGASE LIGAND AND METHODS OF USE” (BEIGENE, LTD., priority 2020, published 2023).

Test [1] addresses T1, EGFR L858R/T790M/C797S (BaF3-LTC cells) (Homo sapiens, UniProt P00533, C797S/L858R/T790M).
T1 construct: expressed in transfected cells; host or cells: BaF3
Kind of test: EGFR degradation HTRF assay, BaF3-LTC cells. It counts as cell-based. The following applies: BaF3-LTC cells; for DC50: EGFR degradation, IC50 (DC50) from curve fit, read-out: DC50(nM) BaF3-LTC; for Dmax: maximum percentage of inhibition (degradation), read-out: Dmax (%) BaF3-LTC. As for the experimental part:
(§1) BaF3 WT(wild type), BaF3-LTC(L858R/T790M/C797S) and BaF3-DTC(Del19/T790M/C797S) cells are treated with compounds diluted in 0.2% DMSO cell culture medium and incubate for 16h, 37° C., 5% CO2, H1975-#36, H1975-#28, H1975-#23 and HCC827 cells are treated with compounds diluted in 0.2% DMSO cell culture medium on day 2, incubate for 16h, 37° C., 5% CO2.the final concentriation of compounds in all assay is start with 10 uM, 5-fold dilution, total 8 doses were included.
(§2) After 16h treatment, add HTRF lysis buffer to each well; seal the plate and incubate 1 hour at room temperature on a plate shaker; Once the cells are lysed, 16 μL of cell lysate are transferred to a PE 384-well HTRF detection plate; 4 μL of pre-mixed HTRF antibodies are added to each well; Cover the plate with a plate sealer, spin 1000 rpm for 1 min, Incubate overnight at room temperature; Read on BMG PheraStar with HTRF protocol (337 nm-665 nm-620 nm).
(§3) The inhibition (degradation) percentage of the compound was calculated by the following equation: Inhibition percentage of Compound=100-100×(Signal-low control)/(High control-low control), wherein signal=each test compound group
(§4) High control=Cell group with added DMSO and without compound, indicating microplate readings without EGFR degradation;
(§5) Dmax is the maximum percentage of inhibition (degradation).
(§6) The IC50 (DC50) value of a compound can be obtained by fitting the following equation
(§7) Y=Bottom+(TOP−Bottom)/(1+((IC50/X)^hillslope))
(§8) Wherein, X and Y are known values, and IC50, Hillslope, Top and Bottom are the parameters obtained by fitting with software. Y is the inhibition percentage (calculated from the equation), X is the concentration of the compound; IC50 is the concentration of the compound when the 50% inhibition is reached. The smaller the IC50 value is, the stronger the inhibitory ability of the compound is. Vice versa, the higher the IC50 value is, the weaker the inhibitory ability of the compound is; Hillslope represents the slope of the fitted curve, generally around 1*; Bottom represents the minimum value of the curve obtained by data fitting, which is generally 0%±20%; Top represents the maximum value of the curve obtained by data fitting, which is generally 100%±20%. The experimental data were fitted by calculating and analyzing with Dotmatics data analysis software.

The test system of test [2] is EGFR Del19/T790M/C797S (H1975-clone #28). Briefly: EGFR degradation HTRF assay, H1975-clone #28 DTC cells. The following applies: H1975 # 28 DTC cells; for DC50: EGFR degradation, IC50 (DC50) from curve fit, read-out: DC50(nM) H1975 # 28 DTC; for Dmax (%) H1975 # 28 DTC: maximum percentage of inhibition (degradation). In kind it is cell-based. As for the experimental part:
H1975-clone #28(Del19/T790M/C797S) and H1975-clone #23(Del19/C797S). EGFR-Del19/T790M/C797S and EGFR-Del19/C797S were stably expressed in H1975 cell lines by lentivirus-mediated over-expression, respectively. The EGFR over-expressed cells then underwent gene knockout, in which the EGFR targeting sgRNA was designed to only target the endogenous EGFR copies and preserve the exogenous EGFR copies. Followed by the gene knockout, the edited H1975 cells were seeded in 96 well plates at the concentration of 1 cell/well, cultured for about 2 weeks to allow single clones formation. The formed clones were screened by DNA sequencing and whole exon sequencing analysis for the desired edition. H1975-clone #28 and H1975-clone #23 were finally confirmed as homozygous Del19/T790M/C797S EGFR and Del19/C797S EGFR clones, respectively.
as §1, §2, §3, §4, §5, §6, §7, §8
On the technique in general: In TR-FRET formats the signal depends on donor and acceptor labels being close together.

SMILES strings stand for the structures.

T1 sequence (P00533 25-1210 T790M/C797S/L858R): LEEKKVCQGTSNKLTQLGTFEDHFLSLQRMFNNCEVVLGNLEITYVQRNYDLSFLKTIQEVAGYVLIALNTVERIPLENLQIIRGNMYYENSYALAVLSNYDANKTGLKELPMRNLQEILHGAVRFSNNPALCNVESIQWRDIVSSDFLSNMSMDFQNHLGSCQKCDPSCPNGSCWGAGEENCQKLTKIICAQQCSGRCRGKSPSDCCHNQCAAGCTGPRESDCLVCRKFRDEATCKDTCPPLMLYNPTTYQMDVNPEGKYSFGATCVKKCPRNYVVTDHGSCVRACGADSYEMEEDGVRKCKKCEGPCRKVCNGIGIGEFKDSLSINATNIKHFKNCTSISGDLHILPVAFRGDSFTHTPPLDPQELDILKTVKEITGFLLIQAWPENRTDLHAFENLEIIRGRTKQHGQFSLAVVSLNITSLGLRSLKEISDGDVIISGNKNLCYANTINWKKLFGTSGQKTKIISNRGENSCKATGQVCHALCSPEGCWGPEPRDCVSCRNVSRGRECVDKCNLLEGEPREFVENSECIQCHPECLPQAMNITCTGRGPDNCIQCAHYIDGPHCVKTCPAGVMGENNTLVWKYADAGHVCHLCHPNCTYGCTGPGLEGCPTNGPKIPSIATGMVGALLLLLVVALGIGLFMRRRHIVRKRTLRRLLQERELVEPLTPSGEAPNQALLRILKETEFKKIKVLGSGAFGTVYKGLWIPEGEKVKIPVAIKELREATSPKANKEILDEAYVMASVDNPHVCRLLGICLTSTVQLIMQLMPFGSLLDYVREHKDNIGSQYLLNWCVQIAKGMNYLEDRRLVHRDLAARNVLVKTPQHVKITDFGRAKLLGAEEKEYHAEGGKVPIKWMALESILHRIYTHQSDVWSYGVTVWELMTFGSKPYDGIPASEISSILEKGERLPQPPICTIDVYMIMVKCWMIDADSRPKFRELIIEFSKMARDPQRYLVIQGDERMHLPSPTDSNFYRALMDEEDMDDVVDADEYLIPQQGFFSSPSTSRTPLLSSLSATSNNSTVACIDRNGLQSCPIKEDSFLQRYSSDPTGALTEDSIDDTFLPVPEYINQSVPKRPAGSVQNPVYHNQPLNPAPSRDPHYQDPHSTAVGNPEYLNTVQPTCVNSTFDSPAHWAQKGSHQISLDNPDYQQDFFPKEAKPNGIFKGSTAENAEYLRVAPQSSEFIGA

`CCc1ccc2c(P(C)(C)=O)c(Nc3nc(Nc4cc(CC)c(N5CCC(N6CCN(CCc7cccc8c7n(C)c(=O)n8C7CCC(=O)NC7=O)CC6)CC5)cc4OC)ncc3Br)ccc2n1` (stereo not shown) [Example 451, 3-(4-(2-(4-(1-(4-((5-bromo-4-((5-(dimethylphosphoryl)-2-ethylquinolin-6-yl)amino)pyrimidin-2-yl)amino)-2-ethyl-5-methoxyphenyl)piperidin-4-yl)piperazin-1-yl)ethyl)-3-methyl-2-oxo-2,3-dihydro-1H-benzo[d]imidazol-1-yl)piperidine-2,6-dione]: in test [1], the DC50 was found to be 3.64 nM and the Dmax was 95.4%. Also, in test [2], the half-maximal degradation concentration (DC50) amounted to 0.612 nM and the “Dmax (%) H1975 # 28 DTC” value came to 70.68%.
With `CCc1ccc2c(P(C)(C)=O)c(Nc3nc(Nc4cc(CC)c(N5CCC(N6CCN(CCc7c(F)ccc8c7n(C)c(=O)n8C7CCC(=O)NC7=O)CC6)CC5)cc4OC)ncc3Br)ccc2n1` (stereo not shown) [Example 452, 3-(4-(2-(4-(1-(4-((5-bromo-4-((5-(dimethylphosphoryl)-2-ethylquinolin-6-yl)amino)pyrimidin-2-yl)amino)-2-ethyl-5-methoxyphenyl)piperidin-4-yl)piperazin-1-yl)ethyl)-5-fluoro-3-methyl-2-oxo-2,3-dihydro-1H-benzo[d]imidazol-1-yl)piperidine-2,6-dione], in test [1], the DC50 worked out at 3.96 nM and the Dmax was 89.7%. Besides, in test [2], the DC50 was 0.863 nM and the “Dmax (%) H1975 # 28 DTC” value is 78.26%.
Take `CCc1ccc2c(P(C)(C)=O)c(Nc3nc(Nc4cc(CC)c(N5CCC(N6CCN(CCc7cccc8c7n(CC)c(=O)n8C7CCC(=O)NC7=O)CC6)CC5)cc4OC)ncc3Br)ccc2n1` (stereo not shown) [Example 453, 3-(4-(2-(4-(1-(4-((5-bromo-4-((5-(dimethylphosphoryl)-2-ethylquinolin-6-yl)amino)pyrimidin-2-yl)amino)-2-ethyl-5-methoxyphenyl)piperidin-4-yl)piperazin-1-yl)ethyl)-3-ethyl-2-oxo-2,3-dihydro-TH-benzo[d]imidazol-1-yl)piperidine-2,6-dione]: in test [1], the DC50 was determined as 5.7 nM and the Dmax was determined as 93.1%. Further, in test [2], the DC50 came to 0.704 nM and the “Dmax (%) H1975 # 28 DTC” value is reported as 77.04%.
In the case of `CCc1ccc2c(P(C)(C)=O)c(Nc3nc(Nc4cc(CC)c(N5CCC(N6CCN(CCc7cccc8c7n(C7CC7)c(=O)n8C7CCC(=O)NC7=O)CC6)CC5)cc4OC)ncc3Br)ccc2n1` (stereo not shown) [Example 454, 3-(4-(2-(4-(1-(4-((5-bromo-4-((5-(dimethylphosphoryl)-2-ethylquinolin-6-yl)amino)pyrimidin-2-yl)amino)-2-ethyl-5-methoxyphenyl)piperidin-4-yl)piperazin-1-yl)ethyl)-3-cyclopropyl-2-oxo-2,3-dihydro-1H-benzo[d]imidazol-1-yl)piperidine-2,6-dione], in test [1], the DC50 came out at 5.13 nM and the Dmax was 92.3%. Further, in test [2], the DC50 came out at 0.735 nM and the “Dmax (%) H1975 # 28 DTC” value is 78.41%.
Take `CCc1ccc2c(P(C)(C)=O)c(Nc3nc(Nc4cc(CC)c(N5CCC(N6CCN(CCCc7ccc8c(c7)oc(=O)n8C7CCC(=O)NC7=O)CC6)CC5)cc4OC)ncc3Br)ccc2n1` (stereo not shown) [Example 456, 3-(6-(3-(4-(1-(4-((5-bromo-4-((5-(dimethylphosphoryl)-2-ethylquinolin-6-yl)amino)pyrimidin-2-yl)amino)-2-ethyl-5-methoxyphenyl)piperidin-4-yl)piperazin-1-yl)propyl)-2-oxobenzo[dloxazol-3(2H)-yl)piperidine-2,6-dione]: in test [1], the DC50 turned out to be 3.56 nM and the Dmax was determined as 89.9%. Moreover, in test [2], the DC50 was 0.621 nM and the “Dmax (%) H1975 # 28 DTC” value was 71.36%.
On the same counts, the results for `CCc1ccc2c(P(C)(C)=O)c(Nc3nc(Nc4cc(CC)c(N5CCC(N6CCN(CCc7cc8oc(=O)n(C9CCC(=O)NC9=O)c8cc7F)CC6)CC5)cc4OC)ncc3Br)ccc2n1` (stereo not shown) [Example 457, 3-(6-(2-(4-(1-(4-((5-bromo-4-((5-(dimethylphosphoryl)-2-ethylquinolin-6-yl)amino)pyrimidin-2-yl)amino)-2-ethyl-5-methoxyphenyl)piperidin-4-yl)piperazin-1-yl)ethyl)-5-fluoro-2-oxobenzo[d]oxazol-3(2H)-yl)piperidine-2,6-dione] are 3.25 nM, 92.5%, 0.655 nM and 74.18%.
As to `CCOc1cc(N2CCC(N3CCN(CCc4c(C)ccc5c4n(C)c(=O)n5C4CCC(=O)NC4=O)CC3)CC2)c(CC)cc1Nc1ncc(Br)c(Nc2ccc3nc(CC)ccc3c2P(C)(C)=O)n1` (stereo not shown) [Example 461, 3-(4-(2-(4-(1-(4-((5-bromo-4-((5-(dimethylphosphoryl)-2-ethylquinolin-6-yl)amino)pyrimidin-2-yl)amino)-5-ethoxy-2-ethylphenyl)piperidin-4-yl)piperazin-1-yl)ethyl)-3,5-dimethyl-2-oxo-2,3-dihydro-1H-benzo[d]imidazol-1-yl)piperidine-2,6-dione], in test [1], the DC50 stood at 132 nM and the Dmax was 90%. In addition, in test [2], the DC50 came out at 38.8 nM and the “Dmax (%) H1975 # 28 DTC” value amounted to 75.83%.
`CCOc1cc(N2CCC(N3CCN(C(=O)C4CN(c5cc(F)cc6c5n(C)c(=O)n6C5CCC(=O)NC5=O)C4)CC3)CC2)c(CC)cc1Nc1ncc(Br)c(Nc2ccc3nc(CC)ccc3c2P(C)(C)=O)n1` (stereo not shown) [Example 466, 3-(4-(3-(4-(1-(4-((5-bromo-4-((5-(dimethylphosphoryl)-2-ethylquinolin-6-yl)amino)pyrimidin-2-yl)amino)-5-ethoxy-2-ethylphenyl)piperidin-4-yl)piperazine-1-carbonyl)azetidin-1-yl)-6-fluoro-3-methyl-2-oxo-2,3-dihydro-1H-benzo[d]imidazol-1-yl)piperidine-2,6-dione]: in test [1], the DC50 is 15.1 nM and the Dmax was 90.8%. Moreover, in test [2], the DC50 is 2.03 nM and the “Dmax (%) H1975 # 28 DTC” value stood at 72.67%.
Taken in the same sequence, the figures for `CCOc1cc(N2CCC(N3CCN(CC4CN(c5cc(F)cc6c5n(C)c(=O)n6C5CCC(=O)NC5=O)C4)CC3)CC2)c(CC)cc1Nc1ncc(Br)c(Nc2ccc3nc(CC)ccc3c2P(C)(C)=O)n1` (stereo not shown) [Example 467, 3-(4-(3-((4-(1-(4-((5-bromo-4-((5-(dimethylphosphoryl)-2-ethylquinolin-6-yl)amino)pyrimidin-2-yl)amino)-5-ethoxy-2-ethylphenyl)piperidin-4-yl)piperazin-1-yl)methyl)azetidin-1-yl)-6-fluoro-3-methyl-2-oxo-2,3-dihydro-1H-benzo[d]imidazol-1-yl)piperidine-2,6-dione] were 12.5 nM, 91.3%, 1.83 nM and 76.06%.
On the same counts, the results for `CCOc1cc(N2CCC(N3CCN(CCc4c(F)ccc5c4oc(=O)n5C4CCC(=O)NC4=O)CC3)CC2)c(CC)cc1Nc1ncc(Br)c(Nc2ccc3nc(CC)ccc3c2P(C)(C)=O)n1` (stereo not shown) [Example 471, 3-(7-(2-(4-(1-(4-((5-bromo-4-((5-(dimethylphosphoryl)-2-ethylquinolin-6-yl)amino)pyrimidin-2-yl)amino)-5-ethoxy-2-ethylphenyl)piperidin-4-yl)piperazin-1-yl)ethyl)-6-fluoro-2-oxobenzo[d]oxazol-3(2H)-yl)piperidine-2_6-dione] are 36 nM, 83.9%, 1.98 nM and 73.66%.

What is called DC50 is the concentration giving 50% degradation. A word on the Dmax: it is the greatest extent of degradation seen.
